In US11542246B2, “Quinoline compounds as IRAK inhibitors and uses thereof” (Merck Patent GmbH, priority 2018, dated 2023):

Legend:
[1] = biological target: IRAK4 (Homo sapiens, UniProt Q9NWZ3); assay: IRAK4 Enzymatic Assay; assay type: biochemical; conditions: His-TEV-IRAK4, ATP 2 μM, STK1-biotin peptide 300 nM, 3 hours at 30° C.
Method: IRAK4 Enzymatic Assay IRAK4 is a human purified recombinant enzyme ([…]. IRAK4 hydrolyses ATP, autophosphorylates and phosphorylates a Serine/Threonine generic peptidic substrate (STK: 61ST1BLC from CisBio International based in Bagnols/Cèze FR). Measurement of IRAK-4 inhibition was performed in streptavidin coated 384 well FlashPlate (PerkinElmer #SM[…]). His-TEV-IRAK4 (20 ng/well), ATP (2 μM, [^33P]ATP 0.25 μCi/well), STK1-biotin peptide (300 nM) and compounds in DMSO (range of concentrations from 20 μM to 1 nM) or controls (2% DMSO) were incubated for 3 hours at 30° C. in assay buffer: Hepes pH7.0 50 mM, Fatty acid-free BSA 0.1%, Dithiothreitol DTT 2 mM, MgCl2 10 mM, EGTA 0.5 mM, Tween-20 0.01%, MnCl2 5 mM. Kinase reaction was stopped by addition of EDTA.

[2] = test system: TLR7 induced IL-6 secretion in human mononuclear cells (PBMC's); assay: TLR7 induced IL-6 in Human PBMC's; assay type: cell-based; conditions: TLR7 specific ligand 2 uM overnight, IL-6 Alpha LISA
Method: TLR7 induced IL-6 in Human PBMC's
Human PBMC assay was used as one of the functional assays to monitor the activity of IRAK1 and IRAK4 small molecule inhibitors on TLR7 induced IL-6 secretion in human mononuclear cells (PBMC's). Human PBMCs were prepared from buffy coats (whole blood enriched with leukocytes and platelets) obtained from healthy volunteers used either fresh or frozen are plated in assay media (RPMI+2% P/S/L-glu+10% HI-FBS) and pre-treated with compounds in DMSO/media (range of concentrations from 25 uM to 0.4 nM) or controls (0.25% DMSO) for 30 minutes at 37° C. in assay media. Following pre-treatment with IRAK1 and IRAK4 inhibitors, PBMC's were stimulated with TLR7 specific ligand (2 uM) overnight (16-18 hrs) at 37° C. After incubation supernatant was transferred to 384 well PE AlphaPlate-384 (6005350) and IL-6 is quantified using Perkin Elmer IL-6 Alpha LISA kit (AL223C). Plates were read on an Envision® plate reader with Alpha Technology®.

[3] = biological target: IRAK1 (Homo sapiens (Human), UniProt P51617); assay: IRAK1 Enzymatic Assay; assay type: biochemical; conditions: His-TEV-IRAK1 (194-712), ATP 1 μM, 3 hours at 30° C.
Method: IRAK1 is a human purified recombinant enzyme (His-TEV-IRAK1 (194-712)). In this assay, IRAK-1 hydrolyses ATP and autophosphorylates. Measurement of IRAK-1 inhibition was performed in streptavidin coated 384 well FlashPlate (PerkinElmer #SMP410A). His-TEV-IRAK-1 (15 ng/well), ATP (1 μM, [33P]ATP 0.25 μCi/well) and compounds in DMSO (range of concentrations from 20 μM to 1 nM) or controls (2% DMSO) were incubated for 3 hours at 30° C. in assay buffer: Hepes pH7.0 50 mM, Fatty acid-free BSA 0.1%, Dithiothreitol DTT 2 mM, MgCl2 10 mM, EGTA 0.5 mM, Triton-X-100 0.01%. Kinase reaction was stopped by addition of EDTA. Supernatant was discarded, plates were washed three times with 150 mM NaCl and radioactivity was then measured in a Microbeta Trilux reader.

Chain of IRAK1 (P51617 194-712): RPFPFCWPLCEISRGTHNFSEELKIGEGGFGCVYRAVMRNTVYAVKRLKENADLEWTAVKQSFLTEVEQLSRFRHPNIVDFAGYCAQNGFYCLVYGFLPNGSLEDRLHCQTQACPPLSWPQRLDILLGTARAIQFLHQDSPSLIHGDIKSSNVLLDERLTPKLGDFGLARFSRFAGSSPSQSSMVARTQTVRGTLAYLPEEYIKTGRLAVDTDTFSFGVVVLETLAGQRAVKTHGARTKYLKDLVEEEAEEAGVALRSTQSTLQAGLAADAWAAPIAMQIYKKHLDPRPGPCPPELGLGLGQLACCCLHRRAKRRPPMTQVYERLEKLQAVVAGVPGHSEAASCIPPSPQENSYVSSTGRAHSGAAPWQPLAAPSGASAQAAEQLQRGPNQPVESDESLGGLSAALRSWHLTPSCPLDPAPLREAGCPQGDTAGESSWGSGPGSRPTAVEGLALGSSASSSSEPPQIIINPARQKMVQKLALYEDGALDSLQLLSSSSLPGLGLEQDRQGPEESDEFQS
Chain of IRAK4 (Q9NWZ3 whole entry, looked up): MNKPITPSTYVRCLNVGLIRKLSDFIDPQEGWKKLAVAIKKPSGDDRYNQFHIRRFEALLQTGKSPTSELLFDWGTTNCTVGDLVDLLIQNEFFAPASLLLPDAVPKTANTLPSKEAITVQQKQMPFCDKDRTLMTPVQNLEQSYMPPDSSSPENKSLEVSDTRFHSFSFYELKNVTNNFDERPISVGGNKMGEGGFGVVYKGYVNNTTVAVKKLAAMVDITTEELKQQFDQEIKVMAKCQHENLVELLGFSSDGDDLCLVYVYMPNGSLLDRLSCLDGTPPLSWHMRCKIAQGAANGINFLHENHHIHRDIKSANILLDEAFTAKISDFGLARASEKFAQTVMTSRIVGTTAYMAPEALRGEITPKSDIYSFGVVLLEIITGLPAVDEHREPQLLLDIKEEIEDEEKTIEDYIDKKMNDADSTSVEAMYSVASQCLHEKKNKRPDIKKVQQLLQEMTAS

Compound | IC50 [1] [nM] | IC50 [2] [nM] | IC50 [3] [nM]
COc1nc2c(OCC3CCC(=O)N3)cccc2cc1C(N)=O (stereo not shown) [Compound 1, 2-Methoxy-8-(5-oxo-pyrrolidin-2-ylmethoxy)-quinoline-3-carboxylic acid amide] | < 100 | < 500 | > 5000
COc1cc2c(OCC3CCC(=O)N3)cccc2nc1C(N)=O (stereo not shown) [Compound 2, 3-Methoxy-5-(5-oxo-pyrrolidin-2-ylmethoxy)-quinoline-2-carboxylic acid amide] | 100 to 1000 |  | > 5000
COc1nc2c(OC[C@@H]3CCC(=O)N3)cccc2cc1C(N)=O [Compound 3, 2-Methoxy-8-((S)-5-oxo-pyrrolidin-2-ylmethoxy)-quinoline-3-carboxylic acid amide] | < 100 | < 500 | 1000 to 5000
CC[C@@H]1[C@H](F)C(=O)N[C@@H]1COc1cccc2cc(C(N)=O)c(OC)nc12 [Compound 4, 8-((2S,3S,4S)-3-Ethyl-4-fluoro-5-oxo-pyrrolidin-2-ylmethoxy)-2-methoxy-quinoline-3-carboxylic acid amide] | < 100 | < 500 | 100 to 1000
COc1nc2c(OC[C@@H]3CC(F)(F)C(=O)N3)cccc2cc1C(N)=O [Compound 5, 8-((S)-4,4-Difluoro-5-oxo-pyrrolidin-2-ylmethoxy)-2-methoxy-quinoline-3-carboxylic acid amide] | < 100 | < 500 | 1000 to 5000
CC[C@@H]1[C@H](F)C(=O)N[C@@H]1COc1nccc2cc(C(N)=O)c(OC)nc12 [Compound 6, 8-((2S,3S,4S)-3-Ethyl-4-fluoro-5-oxo-pyrrolidin-2-ylmethoxy)-2-methoxy-[1,7]naphthyridine-3-carboxylic acid amide] | < 100 |  | 1000 to 5000
